Test results published in patent publication US9504702B2, “Methods of inhibition of protein fucosylation in vivo using fucose analogs” (Seattle Genetics, Inc., priority 2010, dated 2016).
Like-named read-outs stand apart in the source and are kept apart here.

Assays:
[1] = test system: antibody core fucosylation (antibodies that did not bind to KLH, recovered from protein A column); assay: In vivo antibody fucosylation after ip dosing (Example 1, Study 1), AOL lectin dot blot; settings: 150 mg/kg ip daily for 7 days
Method: Female BALB/c mice were immunized with Keyhole Limpet Hemocyanin (KLH) 30-60 days prior to starting this study. For the first study, mice were dosed ip with 150 mg/kg of alkynyl fucose (SGD-1887), alkynyl fucose peracetate (SGD-1890), 2-fluorofucose (SGD-2083), or 2-fluorofucose triacetate (SGD-2084) daily for 7 days or were untreated. On day 2, mice were also boosted with KLH. On the day after the last ip dose, mice were terminally bled and serum obtained. For the second study, mice were given 100 mM of 2-fluorofucose (SGD-2083) in their drinking water or given untreated water for 7 days, boosted with KLH, and continued with 100 mM 2-fluorofucose containing drinking water or untreated water for 7 more days before being terminally bled. Serum was then obtained. No mice died in either study. For both studies, serum was passed over a commercial anti-KLH affinity column to obtain KLH-specific polyclonal antibodies. The flow through from the anti-KLH affinity column was passed over a commercial protein A column to obtain the remaining antibodies.
Dot blots: 0.5 μg each of antibodies from untreated and treated animals, as well as standards of antibody cAC10 having known amounts of core fucosylation (0 to 100% fucose), were blotted onto a nitrocellulose membrane. The proteins levels were visualized by Ponceau staining. The blot was probed with biotinylated Aspergillus oryzae L-fucose-specific lectin (AOL) (which binds to fucosylated antibodies) and developed with streptavidin HRP and ECL. Gel loading (visible) and fucose signals (bioluminescence) were measured with an Alpha Innotech camera and quantitated with the machine software.

[2] = test system: antibody core fucosylation (CHO DG44 cell line producing humanized IgG1 anti-CD70 antibody h1F6); assay: Inhibition of antibody core fucosylation in CHO DG44 cell culture producing h1F6; format: cell-based; settings: day 5, CHO DG44 h1F6; for Inhibition at 50 μM: 50 μM fucose analog
Method: (§1) Fucose analogs have been evaluated for their effect on antibody core fucosylation at concentrations of 50 μM and 1 mM generally as described in Published US Patent Application 2009-0317869. Briefly, the protocol was as follows: A CHO DG44 cell line producing a humanized IgG1 anti-CD70 monoclonal antibody, h1F6 (see International Patent Publication WO 06/113909) was cultured at 7.5×10^5 cells per mL in 2 mLs of CHO culture media at 37°, 5% CO2 and shaking at 100 RPM in a 6 well tissue culture plate. Media was supplemented with insulin like growth factor (IGF), penicillin, streptomycin and either 1 mM or 50 μM of the fucose analog. On day 5 post inoculation, the culture was centrifuged at 13000 RPM for 5 minutes to pellet the cells; antibodies were then purified from supernatant.
(§2) Antibody purification was performed by applying the conditioned media to protein A resin pre-equilibrated with 1× phosphate buffered saline (PBS), pH 7.4. After washing resin with 20 resin bed volumes of 1×PBS, antibodies were eluted with 5 resin bed volumes of Immunopure IgG elution buffer (Pierce Biotechnology, Rockford, Ill.). A 10% volume of 1M Tris pH 8.0 was added to neutralize the eluted fraction.

[3] = test system: LP-1, a human multiple myeloma cell line (IgG fucosylation); assay: Fucosylation of LP-1-generated IgG, AOL dot blot; format: cell-based; settings: for activity at 100 µM: Homo sapiens, LP-1, 120 h, read-out: % of control fucosylated IgG value; for dot blot results (% fucose signal of control): LP-1-generated IgG
Method: To further evaluate the activities of different fucose analogs, 48 different fucose analogs and other four glycosylation inhibitors were tested for their ability to affect the fucosylation the LP-1-generated IgG. LP-1 cells (250,000 cells/mL, 3 mL per compound in 6-well plates) were incubated with 100 μM of each fucose analog for 5 days at 37° C. with a humidified atmosphere of 5% CO2 in IgG-depleted tissue culture media (90% RPMI with 10% IgG-depleted heat inactivated FBS). The IgG was isolated as described above using only 0.5 mL of MabSelect™ protein A resin slurry and one spin cup per sample with elution in 400 μL of IgG elution buffer into 25 μL of 9 M Tris buffer, pH 9. The eluates were concentrated to 10-20 μL per sample and 2 μL of each of the concentrated eluates were dotted onto a nitrocellulose membrane and stained with Ponceau S to estimate and adjust the sample loading for AOL staining. From this estimation of total protein in each sample, approximately 0.5 μg of each sample was dotted onto the membrane, air-dried, and stained with Ponceau S. An image of this stained membrane was captured using an Alpha Innotech FlourChem® Q system. The membrane was then blocked with 5% Bovine Serum Albumin (BSA) in Tris Buffered Saline (TBS) for 1 hr, washed with TBST (TBS with […]) 3 times and then incubated with 5 μg/ml biotinylated-AOL for 1 hr. The membrane was washed again with TBST 3 times, followed by Streptavidin-HRP incubation for 30 min and final washes with TBST 3 times.

[4] = test system: P-selectin ligand on Ramos cells; assay: Cell surface P-selectin ligand by FACS, P-selectin fusion protein, Ramos; format: cell-based, human
Method: 100 μM of each inhibitor was used under standard culture conditions for approximately 1-2 weeks with regular changes of culture medium including fresh inhibitor. After the incubation period, the cells were analyzed by FACS using four different detection reagents: biotinylated-Lens culimaris agglutinin-A (LCA), anti-Lewis' antibody (anti-SSEA1), an anti-Lewis^y antibody (cBR96), and a Recombinant Human P-Selectin/CD62P/Fc Fusion protein. The procedure involved washing of the cells with FACS buffer (PBS+10% bovine serum albumin+0.02% sodium azide) 3 times followed by incubation with the primary detection reagent for 1 hr at 4° C., followed by 3 washes with FACS buffer and then incubation with the secondary detection reagent for 1 hr at 4° C. The cells were finally washed with FACS buffer 3 times and resuspended in FACS buffer and examined using a BD FACScan instrument. […] The P-selectin fusion protein detects P-selectin ligand present on the surface of cells, an interaction which involves the sialyl Lewis' epitope present of the P-selectin ligand.

[5] = test system: antibodies (h1F6 produced by CHO DG44 cell line); assay: Incorporation of fucose analogs into antibodies in CHO DG44 cell culture; format: cell-based
Method: as §1, §2
Certain other fucose analogs were tested for their ability to be incorporated into antibodies. These fucose analogs were tested at concentrations of 50 μM and 1 mM using the methodology as described above.

[6] = test system: LP-1 cells (1,6-fucosylation on the antibody); assay: Fucosylation status of LP-1-generated IgG by reducing PLRP-MS; format: cell-based, human; settings: 5 days; for PLRP/MS (inhibition or incorporation): in words
Excerpt: To further define the results of the AOL dot blot, samples of the IgGs produced by cells treated with the following fucose analogs (that gave moderate to strong decreases in the dot blot AOL signal) were isolated and examined by reducing PLRP-MS to verify the fucosylation status using the MW of the heavy chain: alkynyl fucose peracetate; 5-vinylfucose tetraaceate; 5-methylketofucose tetraacetate; 6-bromofucose tetraacetate; 6-fluorofucose tetraacetate; 5-ethylfucose tetraacetate; 5-epoxyfucose tetraacetate; 6′6-difluorofucose tetraacetate; 6-keto-6-ethyl fucose tetraacetate; and 2-fluorofucose peracetate.
40 mL samples of LP-1 cells (250,000 cells/mL) were treated with 100 μM of a fucose analog for 5 days as described above, and the IgGs were purified as described using protein A resin. The yields were estimated by UV spectroscopy assuming an extinction coefficient of 1.4 AU/(mg/mL). Seven of the ten compounds yielded enough IgG to perform the analysis (use of SGD-2067, SGD-1964, and SGD-2020 yielded <10 μg of IgG, likely due to toxicity of the analogs to the cells). The remaining IgGs were reduced with 10 mM DTT at 37° C. for 15 min and were separated on PLRP followed by MS analysis using a QTOF mass spectrometer. The resulting heavy chain peaks were examined and compared to the IgG generated by untreated cells.
The mass spectrometry signals were evaluated by comparing the peak height of the heavy chain versus heavy chain minus fucose and heavy chain minus fucose plus the mass of the fucose analog (which would arise if there was incorporation of the analog into the antibody carbohydrate).

[7] = 120 h, read-out: Inhibition at 50 μM
[8] = 5 days, LP-1 cells, AOL dot blot, multiple samples separated by semicolon

| SMILES | mortality [1] | fucosylation levels of the antibodies reduced, as compared to the untreated controls ([1]; non-KLH antibodies from protein A column, dot blot, on average) | Inhibition at 50 μM [2, 7] [%] | activity at 100 µM [3, 8] [%] | signal for P-selectin ligand (increase upon treatment) [4] | inhibition at 1000 µM ([2]; 120 h, 1 mM fucose analog) [%] | % Incorporation ([5]; 50 uM) [%] | % Incorporation ([5]; 1 mM) | inhibition of IgG fucosylation in human cells (decrease in AOL signal, dot blot) ([3]; 100 μM, LP-1 cells) | dot blot results (% fucose signal of control) ([3]; 100 μM) | PLRP/MS (inhibition or incorporation) ([6]; 100 μM) | inhibition at 100 µM ([6]; Homo sapiens, 120 h, heavy chain peak heights, read-out: PLRP/MS fucose inhibition) [%] | Inhibition at 50 μM [2] [%] | Inhibition at 1 mM ([2]; 1 mM fucose analog) [%] | % of control fucosylated IgG value ([3]; 100 μM, 5 days, LP-1 cells, AOL dot blot, multiple samples separated by semicolon) | PLRP/MS fucose inhibition ([6]; 100 μM, heavy chain peak heights) [%] |
| --- | --- | --- | --- | --- | --- | --- | --- | --- | --- | --- | --- | --- | --- | --- | --- | --- |
| C#CC(O)[C@@H](O)[C@@H](O)[C@H](O)C=O (stereo partly drawn) [SGD-1887, 5-ethynylarabinose] | No mice died | about one third | > 80 | 3 | not observed | – | – | – | – | – | – | – | – | – | – | – |
| CC(=O)OC1OC(CBr)[C@@H](OC(C)=O)[C@@H](OC(C)=O)[C@@H]1OC(C)=O (stereo partly drawn) [SGD-1969, (3S,4R,5S)-6-(bromomethyl)tetrahydro-2H-pyran-2,3,4,5-tetrayl tetraacetate] | – | – | 50 | 1 | – | 80 | ~50 | 20% at | potentially strong inhibitors | 1 % fucose signal of control | Partial incorporator | 20 | – | – | – | – |
| CC(=O)OC1OC(CF)[C@@H](OC(C)=O)[C@@H](OC(C)=O)[C@@H]1OC(C)=O (stereo partly drawn) [SGD-1988, (3S,4R,5S)-6-(fluoromethyl)tetrahydro-2H-pyran-2,3,4,5-tetrayl tetraacetate] | – | – | – | 15 | – | – | >90 | >90% | potentially strong inhibitors | 15 % fucose signal of control | Full incorporator | – | – | – | – | – |
| CC[C@@H]1OC(OC(C)=O)[C@@H](OC(C)=O)[C@H](OC(C)=O)[C@H]1OC(C)=O (stereo partly drawn) [SGD-1989, (3S,4R,5S,6S)-6-ethyl-tetrahydro-2H-pyran-2,3,4,5-tetrayl tetraacetate] | – | – | – | 11 | – | – | >90 | >90% | potentially strong inhibitors | 11 % fucose signal of control | Fully incorporated | – | – | – | – | – |
| CC(=O)OC1OC(C(F)F)C(OC(C)=O)C(OC(C)=O)C1OC(C)=O (stereo not drawn) [SGD-2046, 6′6-difluoro fucose tetraacetate] | – | – | – | – | – | – | – | – | potentially strong inhibitors | 2 % fucose signal of control | Partial incorporator | – | >80 | >80 | 2 % of control | ~33 |
